Results on two compounds are retold here after US20190380985A1, “Composition Containing N-acetyldiaminobutyric Acid” (bitop AG, priority 2016, published 2019).

In one assay the test system is SIRC cell line. In words: Matsuo moisturizing assay (calcein AM viability after air-drying). In kind it is cell-based, rabbit. The conditions noted are these: 25 mM; 15 min treatment, 45 min air-drying; FIG. 1. The protocol: The skin/mucosal moisturizing effect of N-acetyldiaminobutyric acid was investigated using a Matsuo moisturizing assay (Matsuo, Br J. Opthalmol. 85: 610-612). An SIRC cell line isolated from rabbit eyes was used for this purpose. For the experiments, 30,000 cells were placed in each well of a 96 well microtiter plate. After approx. 24 h a complete monolayer had formed in each case. The supernatant was then removed and 100 μl of the test substances diluted in PBS (phosphate buffered salt solution) were applied to the cells for 15 min. Then, the supernatant was removed again. At this stage, the cells were not washed with PBS. Under sterile conditions the cells were air-dried over a period of 45 min. Following this, the cells were washed three times with PBS. To determine cell viability calcein AM staining (calcein-acetoxymethyl ester) was used. Calcein is a fluorescent dye. After the transport of calcein AM into the living cell, the ester groups were cleaved by esterases of the cell resulting in the formation of calcein causing a strongly green fluorescent complex to be formed with calcium ions present in the cell. […] In turn, a high cell viability attests to good wetting properties of the test substances.
The result is shown in FIG. 1 in comparison to the effect of ectoine and hyaluronic acid. […]

In assay [1] the test system is HaCaT cells. Put plainly: UV protection test via TEER assay. In kind it is cell-based, human. The conditions noted are these: 100 mM, overnight preincubation, 45 min UV-B, 24 h later; FIG. 2. An excerpt: A characteristic feature of epithelial as well as endothelial cell layers is the formation of intercellular connections leading to a dense cell barrier separating the basolateral (abluminal) side from the apical (luminal) side. The cell layers form selectively permeable interfaces between different compartments, in this way controlling the diffusion in intercellular space as well as intracellular transport processes. This is ensured by tight junctions (paracellular barriers in the intercellular space). The integrity of these barriers is determined by the so-called TEER method (transepithelial/transendothelial electrical resistance). A defined DC voltage is applied to two electrodes on both sides of the cell layer. The flowing current is measured, which yields the respective resistance results according to Ohm's law.
HaCaT cells were used, a human keratinocyte cell line. These were applied to PET membranes (“ThinCerts®”). It was waited until the cells had formed a complete and intact monolayer. […]
In order to accomplish a closer investigation of the protective effect of membranes stabilized by N-acetyldiaminobutyric acid against UV radiation, keratinocytes were incubated overnight in a cell culture medium with PBS, NADA (50 mM and 100 mM) and other compounds. […] The cells were incubated for another 24 hours and the TEER values were determined. […]

For another assay, the system named is Phenion skin model. Put plainly: UV protection test using LDH assay on full thickness skin model. In kind it is cell-based. The conditions noted are these: 4 h incubation, compared with PBS, FIG. 3. The protocol:
In order to further evaluate the UV, protection effect of NADA, a full thickness skin model of Henkel (Phenion skin, model) was used. This is based on a bovine collagen structure, which is morphologically equivalent to human skin and thus allows examinations to be easily carried out. The Phenion skin model was incubated with the test substances for 4 hours. These were applied directly to the top surface. Subsequently, the Phenion skin model was exposed to UV-B radiation for 2 hours. […] The skin model was then incubated for another 24 hours and the LDH (lactate dehydrogenase) value was determined, which is a measure of the degree of damage caused to the cells.

Assay [2] has as its system HaCaT cells. In words: IR protection test using LDH assay. The conditions noted are these: 5 h preincubation, 44° C. for 30 min, 60 h at 37° C., FIG. 4; for liberation of LDH (protection against heat/IR): compared to untreated cells. In kind it is cell-based, human. An excerpt:
Infrared (IR) radiation brings about an increase in skin temperature, which is associated with an increase in the number of free radicals and increased expression of heat shock inducing metalloproteases (MMP). A permanent exposure to IR radiation may result in an increase in cell death rate through apoptosis. In order to determine the potential of NADA and, for comparative purposes, ectoine on eukaryotic cells regarding the protection against heat and IR radiation, HaCaT cells (human keratinocyte cell line) were applied to 96 wells of a microtiter plate. After a uniform cell layer had formed, the test substances were applied to the medium and the cells were incubated for 5 hours at a temperature of 37° C. Following preincubation, the cells were exposed to a temperature of 44° C. for 30 min. The cells were then incubated at 37° C. for a further 60 hours.

Another assay has as its system TR146 cell line. Put plainly: Membrane stabilization, calcein AM assay, TR146. In kind it is cell-based, human. The conditions noted are these: different concentrations, compared to PBS only; FIG. 5. The protocol: This is a buccal human cell line of oral mucosa cells. The cells were placed in a microtiter plate having 96 wells. As soon as confluence was reached, the cells were washed with PBS and provided with different concentrations of N-acetyldiaminobutyric acid. The negative control contained only PBS, the positive control cDPG (cyclic 2,3-diphosphoglycerate). Following incubation, the cells were again washed with PBS and incubated with 5 μM of calcein AM for a period of 45 min. The hydrolysis of calcein AM, which itself is non-fluorescent, by intracellular esterases produces calcein, a hydrophilic, highly fluorescent compound that is retained in the cytoplasm of the cells. Accordingly, high fluorescence is indicative of high cell viability.

Another assay relates to LLC-PK1 cell line. Put plainly: Membrane stabilization, calcein AM assay, LLC-PK1. In kind it is cell-based. The conditions noted are these: LLC-PK1 cells; FIG. 6.
Assay [3] has as its system HaCaT cells. In words: ATP assay on aged keratinocytes (cell metabolism). In kind it is cell-based, human. The conditions noted are these: 5 h incubation in PBS, compared to PBS only (0%), FIG. 7. An excerpt: HaCaT cells (a keratinocyte cell line) were placed on a 96-well microtiter plate and a cell culture was allowed to form for a period of at least one week until cell growth was stopped by contact inhibition. Following this, the cells were cultivated for another week to simulate the ageing process. The cell culture medium was changed over to PBS with the addition of NADA and reference substances such as glucosylglycerol, ectoine (28Extremoin) and Myramaze®, a commercially available anti-aging product. The cells were incubated for a period of 5 hours. Finally, an ATP assay was prepared, whereby a high ATP synthesis indicates a high degree of metabolism and thus attests to cell vitality. The results can be seen from FIG. 7.

Another assay has as its system claudin-1. Put plainly: Claudin-1 specific ELISA after heat stress (tight junctions). In kind it is cell-based, human. The conditions noted are these: 6 h pretreatment 10-175 mM, 44° C. 30 min, FIG. 8. An excerpt: The examination focused on the upregulation of claudins, membrane proteins as constituents of tights junctions, which close off the gaps between the cells of the epithelium so that a barrier is formed. This barrier controls the penetration of molecules via the epithelium. Specifically, the pore occluding claudin-1 was examined. An increased expression of claudin-1 leads to higher imperviousness of the epithelial membrane and increased transepithelial electrical resistance (TEER). The permeability is thus reduced.
The epithelial cell line (HaCaT) used for the experiment was cultivated in wells on a microtiter plate until a closed cell monolayer had developed. Subsequently, the cells were pretreated with NADA for 6 hours in the cell culture medium (10, 25, 50, 75, 100 and 175 mM). The cells were then suddenly exposed to a temperature of 44° C. for a period of 30 min. before being kept at 37° C. for another 24 and 48 hours respectively. The cells were harvested and the lysate was analyzed using a claudin-1 specific ELISA (enzyme-linked immunosorbent assay). The results can be seen from FIG. 8.

For `CC(=O)NCCC(N)C(=O)O` (stereo not drawn) [NADA, N-acetyldiaminobutyric acid], the “viability of the cells and thus the humidification after drying of the cells” value in the assay on SIRC cell line is listed as “comparable results to ectoine”. In addition, the “change of the TEER value after UV-B radiation” value with HaCaT cells [1] is “significant protection of the cell membrane”. Besides, the “LDH value after UV exposure (UV protection)” value in the assay with Phenion skin model (2 h UV-B, 24 h later) is recorded as “shows UV protection properties”. Also, the “LDH value before UV exposure” value in the assay with Phenion skin model (before UV-B) was “approximately the same for PBS and NADA”. Moreover, in the assay with HaCaT cells [2], the “protection against IR radiation relative to ectoine” value is listed as “more effective than ectoine” and the “liberation of LDH (protection against heat/IR)” value was “offer protection against intense IR radiation”. Further, the “calcein fluorescence (stabilization of epithelial cells)” value with TR146 cell line was “significant, concentration-dependent stabilization of the epithelial cells”. Further, the “calcein fluorescence (membrane stabilizing effect)” value with LLC-PK1 cell line is reported as “membrane stabilizing effect”. The “ATP activity (cell metabolism)” value in the assay on HaCaT cells [3] was “reactivation of aged keratinocytes”. For the same compound, in the assay on claudin-1 (then 24 hours at 37° C.), the “expression of claudin-1” value is given as “distinct increase in the expression of claudin-1”. Besides, the “expression of claudin-1” value in the assay with claudin-1 (then 48 hours at 37° C.) was “distinct increase in the expression of claudin-1”.
On to `CC1=NC(C(=O)O)CCN1` (stereo not drawn) [ectoine, 2-methyl-1,4,5,6-tetrahydropyrimidine-4-carboxylic acid, reference compound], for which the “liberation of LDH (protection against heat/IR)” value with HaCaT cells [2] is listed as “offer protection against intense IR radiation”.
